Measured values from ChEMBL document CHEMBL1150171, “DNA-damaging agents from Crypteronia paniculata” (J Nat Prod, 2002).
Active and inactive are the calls of the source. The calls are words filed in the database; no cut-off is given here.

Tests used:
[1] = system: Saccharomyces cerevisiae; test: DNA damaging activity against RAD52 transformed Saccharomyces cerevisiae in galactose minimal medium after 41 hrs; assay type: functional, organism-based
[2] = system: Saccharomyces cerevisiae; test: DNA damaging activity against RAD52 transformed Saccharomyces cerevisiae in glucose minimal medium after 41 hrs; assay type: functional, organism-based
[3] = system: Saccharomyces cerevisiae; test: DNA damaging activity against YCp50 transformed Saccharomyces cerevisiae in galactose minimal medium after 41 hrs
[4] = system: Nucleic Acid; test: Induction of DNA cleavage assessed as relaxation of supercoiled plasmid DNA at > 1 mM in presence of Cu2+ by cell free assay; assay type: nucleic-acid assay
[5] = system: Nucleic Acid; test: Induction of DNA cleavage assessed as relaxation of supercoiled plasmid DNA at > 1 mM by cell free assay; assay type: nucleic-acid assay

Row | Compound | IC50 [1] [µM] | IC50 [2] [µM] | IC50 [3] [µM] | Activity [4] | Activity [5]
1 | COc1c(O)cc2c(=O)oc3c(OC)c(O[C@@H]4OC[C@@H](O)[C@H](O)[C@H]4O)cc4c(=O)oc1c2c34 | > 1000 | 3.1 | 23.1 | – | –
2 | C[C@@H]1O[C@@H](Oc2c(-c3ccc(O)cc3)oc3cc(O)cc(O)c3c2=O)[C@H](O)[C@H](O)[C@H]1O [AFZELIN] | > 1000 | 7.4 | 9.3 | inactive | inactive
3 | COc1c(O[C@@H]2O[C@H](CO)[C@@H](O)[C@H](O)[C@H]2O)cc2c(=O)oc3c4c(cc5c(=O)oc1c2c35)OCO4 [NYSSOSIDE] | 14.4 | 1.12 | 0.341 | – | –
